Here are results for 8 compounds from patent US20260152503A1, “SPIROBICYCLIC COMPOUNDS” (ACERAND THERAPEUTICS (HONG KONG) LIMITED, priority 2022, published 2026).

Molecules are shown by their SMILES. Where only a bound is given, the exact number is not on record here.

One test relates to SNU-16. The test is described as follows: 2D cell proliferation assay, SNU-16. Type of test: cell-based. The note with it: Homo sapiens, 96 hours, CTG, read-out: Cell Line, IC50 SNU-16. On the procedure: (§1) Low IC50 values are indicative of the high potency of the FGFR inhibitor compounds in this assay selling. […] Cell proliferation assays are performed in two-dimensional (2D)) anchorage-dependent conditions in 96 well plates (Corning® Black/Clear flat Bottom, Cat #3603) with the following cell lines: • Ba/F3 FGFR2-BICC1 (human […]): Mouse Ba/F3 cell line stably expressed exogenous human FGFR2-BICC1 fusion gene bearing V546F mutation in FGFR2 Ba/F3; • FGFR2-BICC1 (human FGFR2/[…]): Mouse Ba/F3 cell line stably expressed exogenous human FGFR2-BICC1 fusion gene bearing N549K mutation in FGFR2; • Snu-16: human gastric cancer cell with FGFR2 amplification; • KATO III: human gastric cancer cell with FGFR2 amplification; • AN3CA: Human endometrial cancer with FGFR2 mutation (k310R, N549K); • MFM-223: Human breast cancer with FGFR1/2 amplification; • MFE-296: Human endometrial cancer with FGFR2 mutation (N549K); • MFE-280: Human endometrial cancer with FGFR2 mutation ([…]); • NCI-H1581: human non-small cell lung cancer with FGFR1 amplification; • KG-1a: Acute myelogenous leukemia with FGFR1OP2-FGFR1 translocation; • DMS114: human small cell carcinoma of the lung with FGFR1 amplification; • RT112: human bladder cancer with FGFR3 overexpression/FGFR3-TACC3 fusion; • SW780: human bladder cancer with FGFR3 overexpression/FGFR3-BALAP2L1 fusion; • Hep3B: Liver cancer with FGF19 amplification (FGFR4 ligand); • AGS: Human gastric adenocarcinoma with Kras G12D mutation and FGFR wild type; • PC-9: human non-small cell lung cancer (NSCLC) with wild-type FGFR and an EGFR del19 mutation; or • H1975: human non-small cell lung cancer (NSCLC) with wild-type FGFR and EGFR L858R/T790M mutation.
(§2) Cell lines are purchased from the American Type Culture Collection (ATCC) or Sigma. All cell lines are maintained in RPMI-1640 or DMEM supplemented with 10% heat-inactivated fetal bovine serum.
(§3) Cells growing in the log phase are detached with Gibco™ TrypLE™ Express Enzyme and plated in 96 well plate at 3000 to 5000 cells/well in 100 μl of media. After overnight incubation at 37° C., 5% CO2 incubator, cells are treated with compounds (50 uL/well) at the final concentrations spanning from 0.000038 uM to 10 μM (4-fold serial dilution for total of 10 points). Cells are incubated at 37° C., 5% CO2, and 95% humidity incubator for 96 hours. At the end of incubation 2D CTG reagent from Promega was added to each well according to vendors recommendation and mixed for 10 min in dark. The luminescence signals are determined with a Biotek™ plate reader. Data is fitted using a sigmoidal curve analysis program (GraphPad Prism®) with variable hill slope and IC50 is determined.

The target in the next test is T1, FGFR3 (Homo sapiens, UniProt P22607).
T1 construct: RT112 (FGFR3 overexpression/FGFR3-TACC3 fusion); host or cells: RT112; the other entry of the earlier key: TACC3 (Q9Y6A5, Transforming acidic coiled-coil-containing protein 3)
The test is described as follows: pERK potency assay (In Cell ELISA), RT112 cells. As to conditions: RT112 (FGFR3 overexpression/FGFR3-TACC3 fusion) cells, 3 hours. Type of test: cell-based. The method, boiled down: (§4)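 IC50 values come from a 4-parameter sigmoidal fit of in-cell ELISA chemiluminescent pERK (Thr202/Tyr204) signal. Treatment lasted 3 h at 37 °C, final 0.000038 to 10 μM in 4-fold steps, using AN3CA (mutant FGFR2), DMS114 (amplified FGFR1) and RT112 (FGFR3 overexpression/fusion) cells.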
(ELISA stands for enzyme-linked immunosorbent assay.)

The test system of a further test is AN3CA. The test is described as follows: 2D cell proliferation assay, AN3CA. Type of test: cell-based. As to conditions: Homo sapiens, AN3-CA, 96 hours, CTG, read-out: Cell Line, IC50 AN3CA. How it is done:
as §1, §2, §3

The target in the next test is T2, FGFR1 (Homo sapiens, UniProt P11362).
T2 construct: DMS114 (FGFR1 amplification); host or cells: DMS114
T2 sequence (P11362 22-822): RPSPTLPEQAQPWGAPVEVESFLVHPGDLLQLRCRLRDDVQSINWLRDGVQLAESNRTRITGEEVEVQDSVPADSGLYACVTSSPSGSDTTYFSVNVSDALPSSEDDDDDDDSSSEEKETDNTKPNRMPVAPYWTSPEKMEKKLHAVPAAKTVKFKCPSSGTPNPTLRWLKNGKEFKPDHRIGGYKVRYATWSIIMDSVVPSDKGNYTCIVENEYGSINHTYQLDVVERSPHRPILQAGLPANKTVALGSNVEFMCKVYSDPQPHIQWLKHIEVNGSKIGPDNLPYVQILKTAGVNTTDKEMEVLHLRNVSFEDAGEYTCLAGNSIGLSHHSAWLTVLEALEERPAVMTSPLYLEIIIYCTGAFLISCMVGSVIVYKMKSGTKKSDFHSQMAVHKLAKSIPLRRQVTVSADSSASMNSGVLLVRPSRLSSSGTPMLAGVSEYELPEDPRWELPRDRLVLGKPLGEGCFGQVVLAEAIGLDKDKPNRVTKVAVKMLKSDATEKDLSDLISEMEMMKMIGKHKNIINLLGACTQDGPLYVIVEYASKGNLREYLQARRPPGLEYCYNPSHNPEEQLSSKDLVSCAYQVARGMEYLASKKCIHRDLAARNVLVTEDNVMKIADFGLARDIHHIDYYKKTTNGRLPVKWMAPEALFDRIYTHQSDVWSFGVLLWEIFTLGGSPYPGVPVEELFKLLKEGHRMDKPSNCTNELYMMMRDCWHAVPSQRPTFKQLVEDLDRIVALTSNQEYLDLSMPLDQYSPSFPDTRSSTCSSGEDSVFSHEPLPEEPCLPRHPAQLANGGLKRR
The test is described as follows: pERK potency assay (In Cell ELISA), DMS114 cells. Type of test: cell-based. The note with it: DMS114 (FGFR1 amplification) cells, 3 hours. The method, boiled down:
as §4

For a further test, the target named is T3, FGFR2 (Homo sapiens, UniProt P21802, K310R/N549K).
T3 construct: in FGFR aberrations of AN3CA (FGFR2/k310R, N549K); host or cells: AN3CA
T3 sequence (P21802 22-821 K310R/N549K): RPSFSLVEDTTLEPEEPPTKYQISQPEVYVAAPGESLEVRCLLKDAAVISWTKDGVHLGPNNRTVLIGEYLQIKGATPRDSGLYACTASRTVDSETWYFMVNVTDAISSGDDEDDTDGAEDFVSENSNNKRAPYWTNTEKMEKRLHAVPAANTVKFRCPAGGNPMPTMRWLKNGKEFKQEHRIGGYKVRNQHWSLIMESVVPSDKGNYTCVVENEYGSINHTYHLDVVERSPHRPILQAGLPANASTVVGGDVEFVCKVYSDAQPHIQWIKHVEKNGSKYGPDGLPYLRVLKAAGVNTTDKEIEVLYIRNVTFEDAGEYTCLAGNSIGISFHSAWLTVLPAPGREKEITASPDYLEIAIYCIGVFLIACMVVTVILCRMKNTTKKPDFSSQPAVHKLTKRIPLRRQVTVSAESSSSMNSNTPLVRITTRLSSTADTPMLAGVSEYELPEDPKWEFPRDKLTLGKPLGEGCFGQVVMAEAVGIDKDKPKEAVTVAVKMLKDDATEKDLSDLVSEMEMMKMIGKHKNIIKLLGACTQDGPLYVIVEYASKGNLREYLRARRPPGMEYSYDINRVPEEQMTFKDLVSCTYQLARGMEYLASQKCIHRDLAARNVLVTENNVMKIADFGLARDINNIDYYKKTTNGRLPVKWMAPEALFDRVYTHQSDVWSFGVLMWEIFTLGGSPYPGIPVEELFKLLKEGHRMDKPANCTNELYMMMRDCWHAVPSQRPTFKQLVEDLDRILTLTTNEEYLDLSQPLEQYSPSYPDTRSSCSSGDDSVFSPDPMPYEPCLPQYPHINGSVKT
The test is described as follows: pERK potency assay (In Cell ELISA), AN3CA cells. Type of test: cell-based. As to conditions: for IC50: pERK, AN3CA (FGFR2/k310R, N549K) cells, 3 hours; for FGFR1 IC50/FGFR2 IC50 / FGFR3 IC50/FGFR2 IC50: selectivity ratio, pERK potency; for FGFR1 IC50/FGFR2 IC50: FGFR2 relative to FGFR1; for FGFR3 IC50/FGFR2 IC50: FGFR2 relative to FGFR3. The method, boiled down:
as §4

A further test concerns KATO III. The test is described as follows: 2D cell proliferation assay, KATO III. Format: cell-based. As to conditions: Homo sapiens, 96 hours, CTG, read-out: Cell Line, IC50 KATO III. On the procedure:
as §1, §2, §3

The target in another test is T4, Ba/F3 FGFR2-V564F (Homo sapiens, UniProt P21802, V564F, cells depend on it).
T4 construct: fused on or other part: Q9H694 (Protein bicaudal C homolog 1)
T4 sequence (P21802 whole entry V564F, the tested form may be a part): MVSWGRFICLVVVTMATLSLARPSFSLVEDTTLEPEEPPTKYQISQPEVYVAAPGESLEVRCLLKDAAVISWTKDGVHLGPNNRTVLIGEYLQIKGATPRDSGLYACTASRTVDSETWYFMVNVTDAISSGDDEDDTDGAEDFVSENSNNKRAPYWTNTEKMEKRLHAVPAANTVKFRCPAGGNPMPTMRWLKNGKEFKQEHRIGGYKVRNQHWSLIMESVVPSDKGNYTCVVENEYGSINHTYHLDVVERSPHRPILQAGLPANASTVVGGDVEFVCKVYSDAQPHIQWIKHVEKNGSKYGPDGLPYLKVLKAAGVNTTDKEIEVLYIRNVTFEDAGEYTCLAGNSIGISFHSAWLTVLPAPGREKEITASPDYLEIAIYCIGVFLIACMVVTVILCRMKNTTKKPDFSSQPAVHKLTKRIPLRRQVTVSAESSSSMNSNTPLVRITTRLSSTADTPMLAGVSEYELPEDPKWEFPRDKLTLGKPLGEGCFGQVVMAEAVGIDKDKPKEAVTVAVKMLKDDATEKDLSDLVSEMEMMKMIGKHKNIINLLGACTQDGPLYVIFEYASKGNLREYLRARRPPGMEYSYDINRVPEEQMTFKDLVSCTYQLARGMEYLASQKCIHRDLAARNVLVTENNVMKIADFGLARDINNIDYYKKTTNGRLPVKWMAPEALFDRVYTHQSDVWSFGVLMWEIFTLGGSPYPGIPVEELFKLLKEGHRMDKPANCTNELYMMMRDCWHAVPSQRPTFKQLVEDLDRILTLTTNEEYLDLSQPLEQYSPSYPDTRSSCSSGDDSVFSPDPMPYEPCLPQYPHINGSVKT
The test is described as follows: 2D cell proliferation assay, Ba/F3 FGFR2-V564F. Format: cell-based, mouse. As to conditions: 96 hours, CTG, read-out: Cell Line, IC50 Ba/F3 FGFR2-V564F. How it is done:
as §1, §2, §3

The target in another test is T5, Ba/F3 FGFR2-N549K (Homo sapiens, UniProt P21802, N549K, cells depend on it).
T5 construct: fused on or other part: Q9H694 (Protein bicaudal C homolog 1)
T5 sequence (P21802 whole entry N549K, the tested form may be a part): as the sequence (P21802 whole entry V564F, the tested form may be a part) above, with N549K, F564V counted along it
The test is described as follows: 2D cell proliferation assay, Ba/F3 FGFR2-N549K. As to conditions: 96 hours, CTG, read-out: Cell Line, IC50 Ba/F3 FGFR2-N549K. Format: cell-based, mouse. On the procedure:
as §1, §2, §3

What is called IC50 is the point on the concentration scale where inhibition reaches its midpoint. As for `C=CC(=O)N1CCC2(CC=C(c3c(-c4cccc(F)c4)c4c(N)ncnc4n3C)CC2)CC1` [Example 10, 1-(9-(4-amino-5-(3-fluorophenyl)-7-methyl-7H-pyrrolo[2,3-d]pyrimidin-6-yl)-3-azaspiro[5.5]undec-8-en-3-yl)prop-2-en-1-one], the half-maximal inhibitory concentration (IC50) with SNU-16 was 10 to 30 nM; at FGFR3 it was greater than 100 nM; with AN3CA it was 30 to 100 nM; at FGFR1, greater than 100 nM; at FGFR2 it was 1 to 10 nM; with KATO III it was 10 to 30 nM. Also, the “FGFR1 IC50/FGFR2 IC50” value on FGFR2 was “G (a selectivity ratio greater than 150 but less than or equal to 500)”. Further, on FGFR2, the “FGFR3 IC50/FGFR2 IC50” value is “G (a selectivity ratio greater than 150 but less than or equal to 500)”.

In the case of `C=CC(=O)N1CCC2(CC=C(c3c(-c4ncc(C5CCOC5)cn4)c4c(N)ncnc4n3C)CC2)CC1` (centres unmarked) [Example 52, 1-(9-(4-amino-7-methyl-5-(5-(tetrahydrofuran-3-yl)pyrimidin-2-yl)-7H-pyrrolo[2,3-d]pyrimidin-6-yl)-3-azaspiro[5.5]undec-8-en-3-yl)prop-2-en-1-one], the values for the 50% inhibitory concentration (IC50) on FGFR3, on FGFR1 and at FGFR2 were greater than 100 nM, greater than 100 nM and 1 to 10 nM, respectively. Further, the “FGFR1 IC50/FGFR2 IC50” value at FGFR2 was “H (a selectivity ratio greater than 500 but less than or equal to 1000)”. Further, the “FGFR3 IC50/FGFR2 IC50” value on FGFR2 is on record as “I (a selectivity ratio greater than 1000 but less than or equal to 2000)”. Moreover, the GI50 at Ba/F3 FGFR2-V564F is no more than 1 nM; at Ba/F3 FGFR2-N549K, 1 to 10 nM.

Regarding `C=CC(=O)N1CCC2(CC=C(c3c(-c4ccc(OC(F)F)nc4)c4c(N)ncnc4n3C)CC2)CC1` [Example 29, 1-(9-(4-amino-5-(6-(difluoromethoxy)pyridin-3-yl)-7-methyl-7H-pyrrolo[2,3-d]pyrimidin-6-yl)-3-azaspiro[5.5]undec-8-en-3-yl)prop-2-en-1-one], the IC50 in the test on SNU-16 was 1 to 10 nM; on FGFR3, greater than 100 nM; at FGFR1 it was greater than 100 nM; on FGFR2, no more than 1 nM; with KATO III, 1 to 10 nM. Moreover, the “FGFR1 IC50/FGFR2 IC50” value at FGFR2 is recorded as “H (a selectivity ratio greater than 500 but less than or equal to 1000)”. Besides, the “FGFR3 IC50/FGFR2 IC50” value at FGFR2 is “J (a selectivity ratio greater than 2000)”. Further, the GI50 at Ba/F3 FGFR2-V564F was 30 to 100 nM; at Ba/F3 FGFR2-N549K, 1 to 10 nM.

`C=CC(=O)N1CCC2(CC=C(c3c(-c4cccc(OC)c4)c4c(N)ncnc4n3C)CC2)CC1` [Example 16, 1-(9-(4-amino-5-(3-methoxyphenyl)-7-methyl-7H-pyrrolo[2,3-d]pyrimidin-6-yl)-3-azaspiro[5.5]undec-8-en-3-yl)prop-2-en-1-one]: the 50% inhibitory concentration (IC50) in the test on SNU-16 is 10 to 30 nM; at FGFR3, greater than 100 nM; in the test with AN3CA, 30 to 100 nM; at FGFR1, greater than 100 nM; at FGFR2 it was 1 to 10 nM; in the test with KATO III it was 10 to 30 nM. Besides, the “FGFR1 IC50/FGFR2 IC50” value on FGFR2 was “F (a selectivity ratio greater than 50 but less than or equal to 150)”. Moreover, the “FGFR3 IC50/FGFR2 IC50” value on FGFR2 is reported as “G (a selectivity ratio greater than 150 but less than or equal to 500)”.

Consider `C=CC(=O)N1CCC2(CC=C(c3c(-c4ccc(Oc5ncccn5)cc4)c4c(N)ncnc4n3C)CC2)CC1` [Example 4, 1-(9-(4-amino-7-methyl-5-(4-(pyrimidin-2-yloxy)phenyl)-7H-pyrrolo[2,3-d]pyrimidin-6-yl)-3-azaspiro[5.5]undec-8-en-3-yl)prop-2-en-1-one], for which the 50% inhibitory concentration (IC50) with SNU-16 is 1 to 10 nM; at FGFR3 it was greater than 100 nM; with AN3CA it was 30 to 100 nM; at FGFR1, greater than 100 nM; at FGFR2, 1 to 10 nM; with KATO III it was 10 to 30 nM. The “FGFR1 IC50/FGFR2 IC50” value on FGFR2 is recorded as “F (a selectivity ratio greater than 50 but less than or equal to 150)”. Also, the “FGFR3 IC50/FGFR2 IC50” value at FGFR2 is on record as “G (a selectivity ratio greater than 150 but less than or equal to 500)”.

Regarding `C=CC(=O)N1CCC2(CC=C(c3c(-c4ccc(OC)cc4)c4c(N)ncnc4n3C)CC2)CC1` [Example 8, 1-(9-(4-amino-5-(4-methoxyphenyl)-7-methyl-7H-pyrrolo[2,3-d]pyrimidin-6-yl)-3-azaspiro[5.5]undec-8-en-3-yl)prop-2-en-1-one], the concentration for half-maximal inhibition (IC50) with SNU-16 is 1 to 10 nM; on FGFR3 it was greater than 100 nM; in the test on AN3CA, 1 to 10 nM; at FGFR1, 30 to 100 nM; at FGFR2, no more than 1 nM; in the test with KATO III, 1 to 10 nM. Also, the “FGFR1 IC50/FGFR2 IC50” value at FGFR2 was “G (a selectivity ratio greater than 150 but less than or equal to 500)”. Besides, the “FGFR3 IC50/FGFR2 IC50” value at FGFR2 is on record as “H (a selectivity ratio greater than 500 but less than or equal to 1000)”.

In the case of `C=CC(=O)N1CCC2(CC=C(c3c(-c4ncc(OC5CCOC5)cn4)c4c(N)ncnc4n3C)CC2)CC1` (centres unmarked) [Example 47, 1-(9-(4-amino-7-methyl-5-(5-((tetrahydrofuran-3-yl)oxy)pyrimidin-2-yl)-7H-pyrrolo[2,3-d]pyrimidin-6-yl)-3-azaspiro[5.5]undec-8-en-3-yl)prop-2-en-1-one], the results for the IC50 on FGFR3, at FGFR1 and at FGFR2 were greater than 100 nM, greater than 100 nM and no more than 1 nM, respectively. For the same compound, the “FGFR1 IC50/FGFR2 IC50” value at FGFR2 is reported as “G (a selectivity ratio greater than 150 but less than or equal to 500)”. Further, at FGFR2, the “FGFR3 IC50/FGFR2 IC50” value is recorded as “I (a selectivity ratio greater than 1000 but less than or equal to 2000)”. Further, the GI50 on Ba/F3 FGFR2-V564F and on Ba/F3 FGFR2-N549K was greater than 100 nM in each case.

In the case of `C=CC(=O)N1CCC2(CC=C(c3c(-c4ncc(OC)cn4)c4c(N)ncnc4n3C)CC2)CC1` [Example 43, 1-(9-(4-amino-5-(5-methoxypyrimidin-2-yl)-7-methyl-7H-pyrrolo[2,3-d]pyrimidin-6-yl)-3-azaspiro[5.5]undec-8-en-3-yl)prop-2-en-1-one], the IC50 on FGFR3 is greater than 100 nM; on FGFR1 it was greater than 100 nM; on FGFR2 it was no more than 1 nM. Besides, the “FGFR1 IC50/FGFR2 IC50” value on FGFR2 is “H (a selectivity ratio greater than 500 but less than or equal to 1000)”. At FGFR2, the “FGFR3 IC50/FGFR2 IC50” value is recorded as “J (a selectivity ratio greater than 2000)”. Also, the GI50 on Ba/F3 FGFR2-V564F is no more than 1 nM; on Ba/F3 FGFR2-N549K, 1 to 10 nM.
